Results taken from US20050186230A1, “Elemene compositions containing liquid oil” (SD Pharmaceuticals, Inc., priority 2004, published 2005).
Where two headings read alike, the source gives them in different places.

How the values were obtained:
[1] = background statement; cited from earlier work
[2] = Solubility of elemenes in water; format: physicochemical; conditions: found by the inventor
[3] = system: promyelocytic leukemia HL 60 cells; conditions: cited from earlier work
[4] = system: peripheral blood leukocytes (PBL); conditions: cited from earlier work
[5] = system: human leukemia K562 cells; conditions: cited from earlier work
[6] = system: erythroleukemia K562 cells; conditions: cited from earlier work
cerebral carcinoma = conditions: combination of the elemene and local chemotherapy; cited from earlier work
[7] = system: brain tumors (neuroglioma), liver and esophageal cancers; conditions: 2 year clinical trial in China; cited from earlier work
[8] = system: rat ascitic reticulum cell sarcoma; conditions: material contained beta-elemene 65%; cited from earlier work
[9] = system: murine Ehrlich ascites carcinoma; conditions: cited from earlier work
K562 leukemia cells = conditions: cited from earlier work

| solubility in water [2] | Molecule | solubility in water [1] | in vitro IC50 [3] [µg/mL] | in vitro IC50 [4] [µg/mL] | apoptosis of K562 cells [5] | bcl-2 protein expression in K562 cells [5] | in vitro IC50 [6] [µg/mL] | patients reaching complete remission level (cerebral carcinoma) [%] | clinical effect [7] | anti-tumor activity [8] | anti-tumor activity ([9]; murine Ehrlich ascites carcinoma, material contained beta-elemene 65%) | side effects during treatment ([9]; murine and rat tumor models) | apoptosis of K562 leukemia cells (K562 leukemia cells) |
| --- | --- | --- | --- | --- | --- | --- | --- | --- | --- | --- | --- | --- | --- |
| some solubility in water | elemene | insoluble in water | 27.5 | 254.3 | induces apoptosis | down-regulation of bcl-2 protein | 81 | 27 | beneficial effects on brain tumors (neuroglioma), liver and esophageal cancers | – | – | – | – |
| – | C=CC1(C)CCC(C(=C)C)CC1C(=C)C (stereo not drawn) [beta-elemene, 1-methyl-1-vinyl-2,4-diisoprotenyl-cyclohexane] | – | – | – | – | – | – | – | – | marked anti-tumor activity | marked anti-tumor activity | Diarrhea and weight loss | induces apoptosis |
